Results published in ChEMBL document CHEMBL5247640 (J Med Chem, 2023).

Legend:
[1] = target: T1, Thyroid hormone receptor beta (Homo sapiens, UniProt P10828); assay: Agonist activity at human THRbeta transfected in Huh7 cells co-transfected with luciferase reporter plasmid assessed as […] luciferase activity incubated for 16 hrs by Steady-Glo luciferase assay; type: cell-based, Huh-7
T1 sequence (P10828 whole entry): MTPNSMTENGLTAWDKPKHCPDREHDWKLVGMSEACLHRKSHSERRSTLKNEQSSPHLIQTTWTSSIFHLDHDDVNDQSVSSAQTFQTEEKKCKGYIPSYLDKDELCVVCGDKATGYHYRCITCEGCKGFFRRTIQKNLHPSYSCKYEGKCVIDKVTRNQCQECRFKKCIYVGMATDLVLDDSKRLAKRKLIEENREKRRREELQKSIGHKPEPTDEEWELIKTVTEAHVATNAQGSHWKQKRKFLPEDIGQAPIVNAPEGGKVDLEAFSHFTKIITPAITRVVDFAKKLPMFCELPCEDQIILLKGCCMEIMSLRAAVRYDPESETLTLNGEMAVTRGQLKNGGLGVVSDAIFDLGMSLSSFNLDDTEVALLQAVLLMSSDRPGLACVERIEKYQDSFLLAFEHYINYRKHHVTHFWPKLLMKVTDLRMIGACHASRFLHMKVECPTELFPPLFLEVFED

[2] = Fold of selectivity, ratio of compound EC50/T3 EC50 for THRalpha to ratio of compound EC50/T3 EC50 for THRbeta
[3] = target: T2, Thyroid hormone receptor alpha (Homo sapiens, UniProt P10827); assay: Agonist activity at human THRalpha transfected in Huh7 cells co-transfected with luciferase reporter plasmid assessed as […] luciferase activity incubated for 16 hrs by Steady-Glo luciferase assay; type: cell-based, Huh-7
T2 sequence (P10827 whole entry): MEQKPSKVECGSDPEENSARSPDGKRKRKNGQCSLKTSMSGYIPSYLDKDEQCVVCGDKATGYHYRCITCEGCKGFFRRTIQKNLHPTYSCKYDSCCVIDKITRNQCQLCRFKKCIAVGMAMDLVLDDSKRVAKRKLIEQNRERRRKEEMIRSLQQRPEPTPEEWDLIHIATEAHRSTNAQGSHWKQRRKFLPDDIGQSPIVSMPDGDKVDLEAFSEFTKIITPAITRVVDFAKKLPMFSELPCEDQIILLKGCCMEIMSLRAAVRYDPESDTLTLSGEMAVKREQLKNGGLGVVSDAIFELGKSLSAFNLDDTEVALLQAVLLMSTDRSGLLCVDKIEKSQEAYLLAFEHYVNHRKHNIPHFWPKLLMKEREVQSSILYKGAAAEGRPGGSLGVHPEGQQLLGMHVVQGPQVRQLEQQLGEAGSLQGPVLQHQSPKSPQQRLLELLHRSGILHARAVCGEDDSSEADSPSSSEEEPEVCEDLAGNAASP

| Structure (SMILES) | EC50 [1] [µM] | Ratio [2] | EC50 [3] [µM] |
| --- | --- | --- | --- |
| CC(C)n1c(=O)ccc2c1ccn2-c1c(Cl)cc(NC(=O)c2noc(=O)[nH]2)cc1Cl | 0.2 | 6.4 | 0.81 |
| COc1ccc2c(ccn2-c2c(Cl)cc(-n3nc(C#N)c(=O)[nH]c3=O)cc2Cl)c1 | > 33 |  | > 11 |
| N#Cc1nn(-c2cc(Cl)c(-n3ccc4c(O)cccc43)c(Cl)c2)c(=O)[nH]c1=O | > 100 |  | > 33 |
| N#Cc1nn(-c2cc(Cl)c(-n3ccc4cc(O)ccc43)c(Cl)c2)c(=O)[nH]c1=O | 0.65 | 4.1 | 1.4 |
